Experimental findings from patent US11547655B2, “Use of an extract of the pericarp of Nephelium lappaceum for hydrating the skin and/or mucous membranes” (BASF Beauty Care Solutions France S.A.S., priority 2017, dated 2023) are described below.

The experiment relates to involucrin. The experiment in a line: Involucrin synthesis in normal human keratinocytes, ELISA assay. Format: cell-based. The conditions noted are these: for MEAN (% involucrin detected): relative to the control, n=3; for stimulation of involucrin synthesis: at the concentrations tested, corresponding to those present in the cosmetic ingredient of example 4. On the procedure: Normal, that is to say non-pathological, human keratinocytes were cultured in an MCDB153 medium (Dutscher France) containing 2% of fetal calf serum. After culture for 3 days at 37° C., the growth medium was replaced with MCDB153 medium containing various final concentrations of extract of N. lappaceum (by weight relative to the total volume of the medium) or without extract (Control) (table 1). The culture medium was replaced then solubilized in an extraction buffer. The amount of involucrin was quantified by ELISA assay. The results obtained are expressed as % relative to the control (n=3) (MEAN: mean; SD: Standard deviation).
Normal, that is to say non-pathological, human keratinocytes were cultured in an MCDB153 medium (Dutscher France) containing 2% of fetal calf serum. After culture for 3 days at 37° C., the growth medium was replaced with MCDB153 medium containing two final concentrations of ellagic acid or of geranin (w/v final medium) or without ellagic acid or without geranin (Control) (table 3). The culture medium was replaced. The amount of involucrin was quantified by ELISA assay. The results obtained are expressed as % relative to the control (n=3).
On the technique in general: ELISA stands for enzyme-linked immunosorbent assay.

For the compound `O=c1oc2c(O)c(O)cc3c(=O)oc4c(O)c(O)cc1c4c23` [Ellagic acid, ellagic acid], the “stimulation of involucrin synthesis” value was “Neither ellagic acid nor geranin stimulated involucrin synthesis”. Also, the “MEAN (% involucrin detected)” value (1.1 × 10^−4% (w/v medium)) is recorded as 68%. The “MEAN (% involucrin detected)” value (1.9 × 10^−4% (w/v medium)) is 32%.
For `O=C1O[C@H]2[C@@H]3OC(=O)c4cc(O)c(O)c(O)c4-c4c(cc(O)c(O)c4O)C(=O)OC[C@H]2O[C@@H](OC(=O)c2cc(O)c(O)c(O)c2)[C@@H]3OC(=O)c2cc(O)c(O)c3c2[C@@H]2C1=CC(=O)[C@](O)(O3)C2(O)O` [Geranin, geranin], the “stimulation of involucrin synthesis” value is recorded as “Neither ellagic acid nor geranin stimulated involucrin synthesis”. Moreover, under “1.5 × 10^−3% (w/v medium)”, the “MEAN (% involucrin detected)” value turned out to be 29%. In addition, the “MEAN (% involucrin detected)” value (9 × 10^−4% (w/v medium)) is 78%.
